# Key:
# Assay in all cases: Example B2 herbicidal action, post-emergence, pots in glasshouse, evaluated after 13 days (10=total damage to plant; 0=no damage to plant)
# Format in all cases: in vivo
# Settings in all cases: rate 1000 g/ha
# [1] = test system: Ipomea hederaceae
# Protocol: (§1) Seeds of a variety of test species were sown in standard soil in pots. After 8 days cultivation (post-emergence) under controlled conditions in a glasshouse (at 24/16° C., day/night; 14 hours light; 65% humidity), the plants were sprayed with an aqueous spray solution derived from the formulation of the technical active ingredient in acetone/water (50:50) solution containing 0.5% Tween 20 (polyoxyethelyene sorbitan monolaurate, CAS RN 9005-64-5). The test plants were then grown in a glasshouse under controlled conditions in a glasshouse (at 24/16° C., day/night; 14 hours light; 65% humidity) and watered twice daily. After 13 days, the test was evaluated (10=total damage to plant; 0=no damage to plant).
# [2] = test system: Setaria faberi
# Protocol: as §1
# [3] = test system: Solanum nigrum
# Protocol: as §1
# [4] = test system: Amaranthus retroflexus
# Protocol: as §1
# [5] = test system: Echinochloa crus-galli
# Protocol: as §1
SMILES,IPOHE damage score (10=total damage to plant; 0=no damage to plant) [1],SETFA damage score (10=total damage to plant; 0=no damage to plant) [2],SOLNI damage score (10=total damage to plant; 0=no damage to plant) [3],AMARE damage score (10=total damage to plant; 0=no damage to plant) [4],ECHCG damage score (10=total damage to plant; 0=no damage to plant) [5]
CC(C)C(=O)Oc1c(-c2ccccc2OC(F)F)c(=O)n(CC(F)F)c2nccnc12 [A26],5,2,5,10,2
CC(C)(C)C(=O)Oc1c(-c2c(F)ccc(Cl)c2Cl)c(=O)n(CC(F)F)c2nccnc12 [A32],9,7,10,10,4
COc1ccc(OC(F)(F)F)cc1-c1c(OC(=O)C(C)C)c2nccnc2n(CC(F)F)c1=O [A23],9,9,10,10,8
"CC(C)(C)C(=O)Oc1c(-c2c(F)ccc(F)c2Cl)c(=O)n(CC(F)(F)F)c2nccnc12 [C8, 2,2-dimethyl-propionic acid 7-(2-chloro-3,6-difluoro-phenyl)-5-(2,2,2-trifluoro-ethyl)-6-oxo-5,6-dihydro-pyrido[2,3-b]pyrazin-8-yl ester]",10,4,10,10,1
"CC(C)(C)C(=O)Oc1c(-c2c(F)ccc(F)c2Cl)c(=O)n(CCF)c2nccnc12 [C9, 2,2-dimethyl-propionic acid 7-(2-chloro-3,6-difluoro-phenyl)-5-(2-fluoro-ethyl)-6-oxo-5,6-dihydro-pyrido[2,3-b]pyrazin-8-yl ester]",5,0,4,7,0
O=C1c2nccnc2N(CC(F)(F)F)C(=O)C1c1c(F)ccc(F)c1Cl (stereo not shown) [D1],10,6,10,10,5
O=c1c(-c2c(F)ccc(Br)c2Cl)c(O)c2nccnc2n1CC(F)F [B6],10,8,10,10,8
COc1cccc(-c2c(OC(=O)C(C)(C)C)c3nccnc3n(CC(F)F)c2=O)c1OC [A16],7,8,10,8,3
COc1ccc(Br)cc1-c1c(O)c2nccnc2n(CC(F)F)c1=O [B12],6,6,9,9,6
COc1ccc(OC(F)(F)F)cc1-c1c(OC(=O)C(C)(C)C)c2nccnc2n(CC(F)F)c1=O [A27],7,7,9,9,7
CC(C)(C)C(=O)Oc1c(-c2cc(Cl)ccc2Cl)c(=O)n(CC(F)F)c2nccnc12 [A42],9,7,10,10,6
COc1ccc(OC(F)(F)F)cc1-c1c(O)c2nccnc2n(CC(F)F)c1=O [B8],9,9,9,10,9
CCc1cc(C)cc(CC)c1-c1c(OC(=O)C(C)C)c2nccnc2n(CC(F)F)c1=O [A12],9,10,10,3,9
O=C1c2nccnc2N(CCF)C(=O)C1c1c(F)ccc(F)c1Cl (stereo not shown) [D2],5,2,7,6,1
CC(C)(C)C(=O)Oc1c(-c2cc(C(F)(F)F)ccc2C(F)(F)F)c(=O)n(CC(F)F)c2nccnc12 [A43],9,9,9,10,8
CCc1ccccc1-c1c(OC(=O)C(C)C)c2nccnc2n(CC(F)F)c1=O [A45],9,8,10,10,5
CC(C)(C)C(=O)Oc1c(-c2c(F)cccc2Cl)c(=O)n(CC(F)F)c2nccnc12 [A34],9,6,10,10,4
CC(C)(C)C(=O)Oc1c(-c2c(Cl)cc(OC(F)(F)F)cc2Cl)c(=O)n(CC(F)F)c2nccnc12 [A11],10,9,10,10,9
CC(C)(C)C(=O)Oc1c(-c2c(F)ccc(F)c2Cl)c(=O)n(CCC=C(F)F)c2nccnc12 [C11],0,0,2,5,0
O=c1c(-c2cc(Cl)ccc2C(F)(F)F)c(O)c2nccnc2n1CC(F)F [B10],10,9,10,10,9
CC(C)C(=O)Oc1c(-c2cc(F)c(Cl)cc2Cl)c(=O)n(CC(F)F)c2nccnc12 [A20],7,8,9,10,7
CC(C)(C)C(=O)Oc1c(-c2c(Cl)cc(C(F)(F)F)cc2Cl)c(=O)n(CC(F)F)c2nccnc12 [A9],,9,10,10,7
